Consider four compounds from article PMC5404377 (Bioorganic & medicinal chemistry letters, 2016).

One assay concerns the target MOR (Rattus norvegicus, UniProt P33535). The assay can be described thus: [35S]GTPγS assay, agonist efficacy at MOR. It counts as biochemical. Conditions: for MOR functional profile: [35S]GTPγS; for Emax: read-out: MOR %Emax. For orientation: Binding of GTPγS marks nucleotide exchange on a G protein.
A further assay deals with DOR (Rattus norvegicus, UniProt P33533). The assay can be described thus: [35S]GTPγS assay, agonist efficacy at DOR. Conditions: for agonist activity at DOR: [35S]GTPγS. It counts as biochemical.
Assay [1] concerns Male Swiss-Webster mice. The assay can be described thus: Tail-flick nociceptive test. It counts as in vivo. Conditions: mouse.
Assay [2] relates to Male Swiss-Webster mice. Description: Hot plate nociception test. It counts as in vivo. To be noted: mouse.
In a further assay the target is hMOR (Homo sapiens, UniProt P35372). To be noted: read-out: Ki (nM) MOR; literature value; ref [14]; cited from earlier work.
The target of a further assay is hKOR (Homo sapiens, UniProt P41145). Conditions: read-out: Ki (nM) KOR; literature value; ref [14]; cited from earlier work.

For orientation: Emax means the greatest response seen or fitted, relative to the assay's reference. For orientation: EC50 means the concentration needed to bring the measured effect to its halfway point. The low end stands for higher potency in that assay, the high end for lower potency in that assay. As a reminder, the Ki is the dissociation constant of the complex between target and ligand, obtained from inhibition or displacement.

MOR, sequence (P33535 whole entry): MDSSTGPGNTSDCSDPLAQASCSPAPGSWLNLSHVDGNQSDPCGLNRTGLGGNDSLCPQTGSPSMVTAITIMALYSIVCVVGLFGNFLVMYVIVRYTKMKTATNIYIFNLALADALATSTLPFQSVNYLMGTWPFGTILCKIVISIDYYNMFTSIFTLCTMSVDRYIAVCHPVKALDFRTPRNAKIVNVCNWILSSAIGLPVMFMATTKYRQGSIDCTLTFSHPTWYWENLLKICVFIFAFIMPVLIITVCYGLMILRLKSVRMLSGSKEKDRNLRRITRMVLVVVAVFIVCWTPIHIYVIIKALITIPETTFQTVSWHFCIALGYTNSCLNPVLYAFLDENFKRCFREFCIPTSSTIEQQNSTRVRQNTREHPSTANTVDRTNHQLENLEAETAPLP
DOR, sequence (P33533 whole entry): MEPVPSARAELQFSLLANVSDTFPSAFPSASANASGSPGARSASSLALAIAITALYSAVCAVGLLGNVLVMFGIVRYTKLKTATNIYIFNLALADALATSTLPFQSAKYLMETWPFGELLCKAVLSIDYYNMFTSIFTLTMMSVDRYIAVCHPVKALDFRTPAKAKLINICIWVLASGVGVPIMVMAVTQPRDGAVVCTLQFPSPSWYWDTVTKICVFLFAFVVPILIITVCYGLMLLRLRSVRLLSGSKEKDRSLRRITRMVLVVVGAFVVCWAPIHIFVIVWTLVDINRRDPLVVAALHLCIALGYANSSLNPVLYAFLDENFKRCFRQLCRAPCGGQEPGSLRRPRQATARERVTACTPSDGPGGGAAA
hKOR, sequence (P41145 whole entry): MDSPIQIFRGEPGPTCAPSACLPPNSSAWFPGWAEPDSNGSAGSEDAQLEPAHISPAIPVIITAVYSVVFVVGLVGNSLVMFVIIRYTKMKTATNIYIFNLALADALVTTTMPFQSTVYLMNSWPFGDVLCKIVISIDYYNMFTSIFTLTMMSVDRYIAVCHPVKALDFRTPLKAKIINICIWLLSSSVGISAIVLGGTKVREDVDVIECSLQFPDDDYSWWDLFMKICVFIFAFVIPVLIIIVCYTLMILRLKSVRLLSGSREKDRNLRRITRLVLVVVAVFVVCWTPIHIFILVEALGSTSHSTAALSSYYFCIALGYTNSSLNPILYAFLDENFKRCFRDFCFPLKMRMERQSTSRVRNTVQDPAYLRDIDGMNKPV
hMOR, sequence (P35372 whole entry): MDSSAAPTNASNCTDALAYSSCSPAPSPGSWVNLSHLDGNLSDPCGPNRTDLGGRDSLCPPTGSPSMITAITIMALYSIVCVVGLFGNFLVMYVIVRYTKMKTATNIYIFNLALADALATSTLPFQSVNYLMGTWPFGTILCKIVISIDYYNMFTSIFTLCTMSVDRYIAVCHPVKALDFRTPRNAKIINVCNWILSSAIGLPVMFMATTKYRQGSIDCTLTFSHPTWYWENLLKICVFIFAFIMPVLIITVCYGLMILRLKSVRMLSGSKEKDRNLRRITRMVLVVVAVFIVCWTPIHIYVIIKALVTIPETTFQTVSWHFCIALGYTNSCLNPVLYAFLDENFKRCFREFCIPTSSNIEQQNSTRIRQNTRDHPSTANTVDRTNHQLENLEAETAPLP

For `O=C1/C(=C/c2ccccc2)C[C@@]2(O)[C@H]3Cc4ccc(O)c5c4[C@@]2(CCN3CCc2ccccc2)[C@H]1O5` [Compound 7], on MOR, the MOR functional profile entry is “partial agonists” and the Emax is 52 ± 3.8%. Besides, the “agonist activity at DOR” value on DOR is listed as “no significant agonist activity”. Also, the Emax at DOR (read-out: DOR %Emax) was under 10%.
In the case of `O=C1/C(=C/c2ccccc2)C[C@@]2(O)[C@H]3Cc4ccc(O)c5c4[C@@]2(CCN3CCCc2ccccc2)[C@H]1O5` [Compound 8], the Emax on MOR is under 10%.
As for `CN1CC[C@]23c4c5ccc(O)c4O[C@H]2C(=O)/C(=C/c2ccccc2)C[C@@]3(O)[C@H]1C5` [Compound 6, 7-benzylideneoxymorphone], in the assay on Male Swiss-Webster mice [1] (50 mg/kg s.c., at 70 min (p<0.01)), the “tail-flick antinociception compared to saline control” value is listed as “significantly greater antinociception”. For the same compound, the “tail-flick antinociception compared to saline control” value in the assay with Male Swiss-Webster mice [1] (60 mg/kg s.c., at 30 (p<0.001), 50 (p<0.01), 70 (p<0.01) min) is “significantly greater antinociception”. Besides, the “time of peak antinociception effects, tail-flick” value with Male Swiss-Webster mice [1] (60 mg/kg s.c., post-administration) was 30 min. Besides, the “hot plate antinociception compared to saline control” value in the assay with Male Swiss-Webster mice [2] (50 mg/kg s.c., at 30 min (p<0.05)) is “significantly greater antinociception”. The “hot plate antinociception compared to saline control” value with Male Swiss-Webster mice [2] (60 mg/kg s.c., at 30 (p<0.01), 50 (p<0.001), 70 (p<0.05) min) is listed as “significantly greater antinociception”. In addition, in the assay with Male Swiss-Webster mice [2] (s.c., increasing doses 20-60 mg/kg), the “Emax, hot plate antinociception” value was “approximately 40 % MPE”. Further, on MOR, the EC50 was 0.072 ± 0.011 µM, the MOR functional profile result was “partial agonists” and the maximal effect (Emax) was determined as 39 ± 1.3%. For the same compound, the “agonist activity at DOR” value at DOR is on record as “no significant agonist activity”.
On to `O=C1/C(=C/c2ccccc2)C[C@@]2(O)[C@H]3Cc4ccc(O)c5c4[C@@]2(CCN3CC2CC2)[C@H]1O5` [BNTX, benzylidenenaltrexone], for which the Ki is 26 nM on hMOR and 48 nM on hKOR.
